# Data: publication PMC12720098, “Prolintane analogs as hybrid monoamine transporter ligands: Structural determinants and species differences” (The Journal of Biological Chemistry, 2025)
# Entries after “also recorded” stand apart in the source; their conditions may differ. Counter-ions that a name gives are not always drawn. Like-named read-outs stand apart in the source and are kept apart here.
# Tests used:
# rSERT = rSERT (Rattus norvegicus, UniProt P31652); type: cell-based; parameters: expressed in transfected cells; conditions: for Mean diff, rSERT efflux ± Mon (Šídák's multiple comparisons test): drug alone vs drug + monensin (Mon)
# Protocol: A day prior to the experiment, HEK293 cells stably expressing hSERT or rat SERT (rSERT) were seeded at a density of 100,000 cells per channel into 6 channel flow ibidi slides (Gräfelfing, Germany). On the day of the experiments, cells were preloaded with 0.1 μM [^3H]5-HT at 37 °C, 5% CO2 for 20 min. Subsequently, the slides were transferred to the superfusion apparatus ([59]). Cells were then washed with KHB for 15 min under a constant flow of 0.5 ml/min. Fractions were collected every 2 min in 8 ml vials containing 2 ml scintillation cocktail. Collection began with three baseline fractions using KHB, followed by four additional basal release fractions with KHB, either with or without 10 μM monensin. […] To assess residual radioactivity within the cells, they were lysed with 1% sodium dodecyl sulfate (SDS), and three final fractions were obtained. The measured tritiated substrate in each fraction was expressed as a percentage of the initial tritiated substrate present at the start of that fraction.
# (§1) Uptake inhibition data were evaluated by one-way ANOVA followed by Tukey's multiple comparisons test. Release data were analyzed using a two-way ANOVA (batch release) or a mixed-effects model with Geisser-Greenhouse correction (time-dependent traces) employing Šidák correction for comparing differences between compounds with or without the addition of monensin.
# hSERT = target: T1, hSERT (Homo sapiens, UniProt P31645); type: cell-based
# T1 construct: expressed in transfected cells
# Protocol: (§2) Batch release assays were performed as described previously ([44]). In brief, HEK293 cells stably expressing monoamine transporters were seeded similar to the procedure used for uptake inhibition assays. A day after seeding cells were pre-loaded with 50 μl/well 0.015 μM [^3H]MPP^+ (hDAT, hNET), or 0.08 μM [^3H]5-HT (hSERT) for 20 min at 37 °C. Then cells were washed four times for 3 to 4 min each and further incubated with KHB or KHB + monensin. After 10 min of incubation, two (screening) to four (full traces; hSERT) 2 min incubations were performed to establish a baseline release without substance. […] Each fraction was transferred to an empty well in the 96-well plate. For screening, a known inhibitor (hDAT, hNET: 50 μM GBR12909) and releaser (hDAT, hNET: 10 μM S-(+)-amphetamine) were used as controls. Ultima Gold XR scintillation cocktail was added to the remaining cells, and each well contained a release fraction. The counted radioactivity in the respective fraction was expressed as a percentage of total radioactivity at the start of the fraction.
# as §1, with “Half-maximal inhibitory concentrations (IC50) were obtained from fitting a sigmoidal dose–response ( Y=Bottom+Top−Bottom/1+10^((LogIC50−X)·HillSlope) ) in GraphPad Prism 10.3.1 (GraphPad Software Inc.). Uptake” for “Uptake”
# hNET = target: T2, hNET (Homo sapiens, UniProt P23975); test: Batch release assay ([3H]MPP+) in transfected HEK293 cells; type: cell-based; conditions: % efflux of total uptake, compounds approximately at IC50 concentration
# T2 construct: expressed in transfected cells
# Protocol: as §2
# as §1, with “Half-maximal inhibitory concentrations (IC50) were obtained from fitting a sigmoidal dose–response ( Y=Bottom+Top−Bottom/1+10^((LogIC50−X)·HillSlope) ) in GraphPad Prism 10.3.1 (GraphPad Software Inc.). Uptake” for “Uptake”
# hDAT = target: T3, hDAT (Homo sapiens, UniProt Q01959); test: as above; type: cell-based; conditions: % efflux of total uptake, compounds approximately at IC50 concentration
# T3 construct: expressed in transfected cells
# Protocol: as §2
# as §1, with “Half-maximal inhibitory concentrations (IC50) were obtained from fitting a sigmoidal dose–response ( Y=Bottom+Top−Bottom/1+10^((LogIC50−X)·HillSlope) ) in GraphPad Prism 10.3.1 (GraphPad Software Inc.). Uptake” for “Uptake”
# native HEK293 cells = test: Whole-cell patch-clamp control in native HEK293 cells without transfection; type: cell-based, human; conditions: prolintane 30 µM, 5-HT 10 µM (Fig. S3)
# Protocol: One day prior to recording, either native HEK293 cells or HEK293 cells stably expressing monoamine transporters were seeded at low density onto PDL-coated 35 mm dishes. Patch-clamp experiments were conducted at a holding potential of −60 mV, with substrate-induced currents recorded at room temperature (20–24 °C) using an […] amplifier and pClamp 11.2 software (MDS Analytical Technologies). During recordings, cells were continuously superfused via a DAD-12 perfusion system and an 8-tube manifold (ALA Scientific Instruments), delivering an external solution composed of 140 mM NaCl, 2.5 mM CaCl2, 3 mM KCl, 2 mM MgCl2, 20 mM glucose, and 10 mM HEPES, with pH adjusted to 7.3 using NaOH. The intracellular pipette solution, designed to mimic physiological ionic conditions, contained 133 mM potassium gluconate, 5.9 mM NaCl, 1 mM CaCl2, 0.7 mM MgCl2, 10 mM HEPES, and 10 mM EGTA, with pH set to 7.2 using KOH. Currents were filtered at 1 kHz and digitized at 10 kHz via a Digidata 1550 digitizer (MDS Analytical Technologies), followed by analysis in Clampfit 10.2 (Molecular Devices). Substance-induced currents were normalized to the current elicited by a saturating concentration of 5-HT (10 μM) of the same cell. Holding currents were subtracted, and a 50 Hz digital Gaussian low-pass filter was applied to the traces for further analysis.
# Sequence of rSERT (P31652 whole entry, the tested form may be a part): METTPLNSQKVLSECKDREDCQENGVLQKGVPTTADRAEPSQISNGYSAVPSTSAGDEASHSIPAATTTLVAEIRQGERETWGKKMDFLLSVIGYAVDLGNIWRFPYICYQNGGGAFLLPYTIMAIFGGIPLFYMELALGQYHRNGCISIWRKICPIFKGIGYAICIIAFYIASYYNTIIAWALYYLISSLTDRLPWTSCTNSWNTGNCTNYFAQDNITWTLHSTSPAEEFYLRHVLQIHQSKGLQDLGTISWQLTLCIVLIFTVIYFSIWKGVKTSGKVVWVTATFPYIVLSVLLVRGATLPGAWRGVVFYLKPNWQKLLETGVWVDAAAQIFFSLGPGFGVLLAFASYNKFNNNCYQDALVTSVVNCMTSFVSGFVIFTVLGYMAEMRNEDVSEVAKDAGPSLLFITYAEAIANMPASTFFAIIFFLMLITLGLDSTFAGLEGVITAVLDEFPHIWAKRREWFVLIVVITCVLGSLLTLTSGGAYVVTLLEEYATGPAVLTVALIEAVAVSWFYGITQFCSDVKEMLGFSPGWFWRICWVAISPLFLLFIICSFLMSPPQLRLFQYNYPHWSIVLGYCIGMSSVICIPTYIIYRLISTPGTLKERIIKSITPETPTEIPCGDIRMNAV
# T3 sequence (Q01959 whole entry): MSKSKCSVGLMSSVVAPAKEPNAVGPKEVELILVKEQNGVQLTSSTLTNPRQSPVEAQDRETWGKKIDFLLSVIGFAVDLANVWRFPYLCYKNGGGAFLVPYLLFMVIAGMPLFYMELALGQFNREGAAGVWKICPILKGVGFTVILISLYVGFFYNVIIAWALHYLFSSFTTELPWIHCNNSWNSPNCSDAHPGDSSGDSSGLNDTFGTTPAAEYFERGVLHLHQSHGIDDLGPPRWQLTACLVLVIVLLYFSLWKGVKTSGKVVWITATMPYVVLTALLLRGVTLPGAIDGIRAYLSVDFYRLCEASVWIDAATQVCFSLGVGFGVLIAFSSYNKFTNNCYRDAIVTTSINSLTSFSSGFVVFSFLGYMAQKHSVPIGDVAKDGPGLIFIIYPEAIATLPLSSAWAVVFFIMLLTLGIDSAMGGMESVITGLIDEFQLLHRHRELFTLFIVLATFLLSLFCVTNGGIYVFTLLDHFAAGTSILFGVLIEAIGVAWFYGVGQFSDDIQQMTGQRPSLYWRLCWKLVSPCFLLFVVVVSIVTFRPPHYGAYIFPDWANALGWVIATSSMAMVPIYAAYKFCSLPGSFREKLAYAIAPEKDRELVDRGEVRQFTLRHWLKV
# T2 sequence (P23975 whole entry): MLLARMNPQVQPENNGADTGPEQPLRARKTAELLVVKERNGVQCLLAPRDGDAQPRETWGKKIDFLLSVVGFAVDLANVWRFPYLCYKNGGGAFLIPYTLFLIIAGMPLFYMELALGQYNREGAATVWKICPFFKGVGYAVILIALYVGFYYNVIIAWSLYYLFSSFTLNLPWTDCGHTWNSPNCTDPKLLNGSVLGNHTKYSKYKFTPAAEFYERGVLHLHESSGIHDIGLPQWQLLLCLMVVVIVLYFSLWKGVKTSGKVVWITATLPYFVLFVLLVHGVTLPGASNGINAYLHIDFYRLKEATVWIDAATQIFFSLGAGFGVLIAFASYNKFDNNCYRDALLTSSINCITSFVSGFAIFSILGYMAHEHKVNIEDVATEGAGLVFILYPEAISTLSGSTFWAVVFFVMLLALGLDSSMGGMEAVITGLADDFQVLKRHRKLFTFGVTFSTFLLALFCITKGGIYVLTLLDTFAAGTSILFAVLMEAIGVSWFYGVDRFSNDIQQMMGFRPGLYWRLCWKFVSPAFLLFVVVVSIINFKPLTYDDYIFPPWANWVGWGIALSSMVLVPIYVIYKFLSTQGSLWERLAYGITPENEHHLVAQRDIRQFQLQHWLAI
# T1 sequence (P31645 whole entry): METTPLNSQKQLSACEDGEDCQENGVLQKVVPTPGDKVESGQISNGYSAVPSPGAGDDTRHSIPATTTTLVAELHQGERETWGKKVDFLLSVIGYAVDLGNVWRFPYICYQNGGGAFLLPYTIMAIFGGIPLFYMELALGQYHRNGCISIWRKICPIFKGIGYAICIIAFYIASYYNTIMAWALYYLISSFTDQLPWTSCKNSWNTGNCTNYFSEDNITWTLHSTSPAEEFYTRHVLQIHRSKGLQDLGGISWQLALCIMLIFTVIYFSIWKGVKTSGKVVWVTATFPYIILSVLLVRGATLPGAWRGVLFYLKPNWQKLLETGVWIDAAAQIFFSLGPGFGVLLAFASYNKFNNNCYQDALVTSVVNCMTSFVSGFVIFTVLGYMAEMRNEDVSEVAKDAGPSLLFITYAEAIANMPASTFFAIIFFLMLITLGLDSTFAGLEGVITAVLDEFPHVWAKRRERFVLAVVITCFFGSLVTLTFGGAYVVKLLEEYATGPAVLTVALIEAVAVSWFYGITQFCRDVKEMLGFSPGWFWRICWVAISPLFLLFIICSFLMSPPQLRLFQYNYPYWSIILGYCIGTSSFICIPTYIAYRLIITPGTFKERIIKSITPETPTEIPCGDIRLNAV
smiles,measurement,setting,value
"CC(N)Cc1ccc(Cl)cc1 (stereo not shown) [pCA, para-chloroamphetamine]","Mean diff, rSERT efflux ± Mon (Šídák's multiple comparisons test)",rSERT; Row 1 (time fraction),0.1306
same,"Mean diff, rSERT efflux ± Mon (Šídák's multiple comparisons test)",rSERT; Row 2 (time fraction),0.1761
same,"Mean diff, rSERT efflux ± Mon (Šídák's multiple comparisons test)",rSERT; Row 3 (time fraction),0.2854
same,"Mean diff, rSERT efflux ± Mon (Šídák's multiple comparisons test)",rSERT; Row 4 (time fraction),0.1377
same,"Mean diff, rSERT efflux ± Mon (Šídák's multiple comparisons test)",rSERT; Row 5 (time fraction),-0.4218
same,"Mean diff, rSERT efflux ± Mon (Šídák's multiple comparisons test)",rSERT; Row 6 (time fraction),-0.8916
same,"Mean diff, rSERT efflux ± Mon (Šídák's multiple comparisons test)",rSERT; Row 7 (time fraction),-1.153
same,"Mean diff, rSERT efflux ± Mon (Šídák's multiple comparisons test)",rSERT; Row 8 (time fraction),-7.649
same,"Mean diff, rSERT efflux ± Mon (Šídák's multiple comparisons test)",rSERT; Row 9 (time fraction),-4.816
same,"Mean diff, rSERT efflux ± Mon (Šídák's multiple comparisons test)",rSERT; Row 10 (time fraction),-3.007
same,"Mean diff, rSERT efflux ± Mon (Šídák's multiple comparisons test)",rSERT; Row 11 (time fraction),-2.599
same,"Mean diff, rSERT efflux ± Mon (Šídák's multiple comparisons test)",rSERT; Row 12 (time fraction),-2.043
same,magnitude of [3H]5-HT release in cells expressing rSERT compared to hSERT,"rSERT; superfusion, HEK293 cells",significantly lower magnitude
same,"hSERT-mediated efflux, predicted (LS) mean diff, No mon - Mon",hSERT,-18.87
"Fc1ccc(C(OCCN2CCN(CCCc3ccccc3)CC2)c2ccc(F)cc2)cc1 [GBR12909, vanoxerine, reference compound]","hNET-mediated efflux, predicted (LS) mean diff, No mon - Mon",hNET,-0.7072
same,"hDAT-mediated efflux, predicted (LS) mean diff, No mon - Mon",hDAT,-0.7725
"C[C@H](N)Cc1ccccc1 [S-(+)-amphetamine, dextroamphetamine hemi sulfate salt, reference compound]","hNET-mediated efflux, predicted (LS) mean diff, No mon - Mon",hNET,-5.397
same,"hDAT-mediated efflux, predicted (LS) mean diff, No mon - Mon",hDAT,-1.735
"NCCc1c[nH]c2ccc(O)cc12 [5-HT, serotonin]",current in native HEK293 cells without transfection,native HEK293 cells,no current could be recorded; also recorded: do not induce currents
